Experiments:
[1] = system: scratching behaviors in FADS mice; test: Scratching behaviors in FADS mice upon single systemic administration of αvβ3 integrin inhibitors; type: in vivo, mouse (FADS, Nestin-cre/Ikk2ff); conditions: for % Change from baseline in the number of scratchings (mean ± standard error): single, 60 minutes after administration vs before administration
Source text: Nestin-cre transgenic mice were crossed with IKK2^ff mice to prepare Nestin-cre/Ikk2^ff mice specifically lacking IKK2 in their facial skin fibroblasts (Nunomura S, et al. J Invest Dermatol. 139:1274-1283, 2019). These mice inevitably develop atopic dermatitis-like rash limited to the face and intense itchy symptoms, and were therefore designated as Facial Atopic Dermatitis with Scratching (FADS) mice. […] For evaluation of the prophylactic or therapeutic agent of the present invention, FADS mice at 3 to 4 weeks of age or older were used because of showing spontaneous scratching behaviors. It should be noted that in this Example section, the above compound of formula (I) (more particularly “CP4715”) was used as the prophylactic or therapeutic agent of the present invention.
FADS mice were acclimated for 20 minutes to the environment of a recording cage, and then recorded with a video camera. The recorded videos were replayed, and scratching behaviors were counted assuming that hind paw scratching to the face and the subsequent movement of toe licking or paw lowering to the ground were regarded as one cycle of scratching behavior.
(§1) Prior to the administration of the above αvβ3 integrin inhibitors, FADS mice were recorded for 60 minutes with a video camera and then allowed to rest for 15 minutes. The compounds except for GLPG-0187 were each dissolved at 89.5 mM in a diluent (physiological saline containing 50% DMSO and 89.5 mM HCL), from which an amount corresponding to 53.7 μmol/kg per mouse was then taken and diluted with 0.3 mL of PBS, and then administered intraperitoneally. […] Mice administered with 0.3 mL of PBS containing an equal amount of the diluent as calculated based on the body weight were used as a control group.
The mice were recorded for 60 minutes with a video camera immediately after administration of the above αvβ3 integrin inhibitors. The number of scratchings before administration was used as a baseline, and % change from the baseline after administration was calculated for each compound. For statistical analysis, paired t-test was used. A P-value of less than 0.05 was considered to be statistically significant. The effect of an inhibitor whose mean change from the baseline was −65% or more at a P-value of less than 0.01 was expressed as “++”; the effect of an inhibitor whose mean change from the baseline was −60% or less at a P-value of less than 0.05 was expressed as “+”; and the effect of an inhibitor whose mean change from the baseline was −60% or less at a P-value of 0.05 or higher was expressed as “−.”

[2] = molecular target: T1, integrin αvβ3 (Homo sapiens, UniProt P05106+P06756); test: Inhibition of periostin-dependent adhesion of SW480 cells expressing integrin αvβ3; type: cell-based; conditions: immobilized recombinant human periostin, FIG. 6; for IC50: SW480 cells expressing human integrin β3, compounds at 0.001-1 μM, read-out: 50% inhibition concentration (IC50 value) for cell adhesion inhibitory activity; for cell adhesion inhibitory effect (in words): SW480 cells expressing integrin αvβ3
T1 construct: SW480 cells, a human colon cancer cell line not expressing integrin β3; expressed in transfected cells; host or cells: SW480 cells (human colon cancer) stably expressing human integrin β3
Experimental: For use in cell adhesion experiments, SW480 cells, a human colon cancer cell line not expressing integrin β3, were genetically engineered to stably express human integrin β3 (Nanri Y, et al. Am J Respir Cell Mol Biol. 62:204-216, 2020). The compounds shown in Table 1 were examined for their inhibitory activity against adhesion between integrin αvβ3 and periostin according to the following procedures. First, a 96-well plate was treated with 10 μg/mL recombinant human periostin (Bio-Techne) at 4 °C for 16 hours to immobilize periostin. The SW480 cells expressing integrin αvβ3 (5×10^4 cells) were reacted at room temperature for 15 minutes with the above compounds at 0.001, 0.01, 0.1 and 1 μM in serum-free DMEM (Dulbecco's Modified Eagle Medium) containing 0.5% bovine serum albumin and 0.25 mM MnCl2. A group receiving no compound was used as a control. The reacted cell suspensions were added to separate wells of the above human periostin-immobilized plate, and the plate was centrifuged at 10×g for 5 minutes and then cultured at 37 °C for 60 minutes. Then, after the adhered cells were washed to remove unbound cells, the adhered cells were fixed with 1% formaldehyde and stained with 0.5% crystal violet. The fixed and stained cells were solubilized with 0.2% Triton X-100 and measured for absorbance at 595 nm. The absorbance of the control (i.e., the group receiving no compound) was set to 0% inhibition. […] Cell adhesion in this test system is periostin-dependent, and a compound inhibiting this cell adhesion can be referred to as a periostin receptor antagonist.

[3] = Solubility in the diluent; type: physicochemical; conditions: diluent: physiological saline containing 50% DMSO and 89.5 mM HCl
Experimental: as §1

[4] = system: integrin αvβ3; conditions: cited from earlier work
[5] = system: integrin αvβ3; conditions: Nanri Y, et al. 2020; cited from earlier work
[6] = system: scratching behaviors; conditions: intracutaneous or subcutaneous administration; Non-patent Document 2; cited from earlier work

T1 sequence (P06756 31-889 limits assumed): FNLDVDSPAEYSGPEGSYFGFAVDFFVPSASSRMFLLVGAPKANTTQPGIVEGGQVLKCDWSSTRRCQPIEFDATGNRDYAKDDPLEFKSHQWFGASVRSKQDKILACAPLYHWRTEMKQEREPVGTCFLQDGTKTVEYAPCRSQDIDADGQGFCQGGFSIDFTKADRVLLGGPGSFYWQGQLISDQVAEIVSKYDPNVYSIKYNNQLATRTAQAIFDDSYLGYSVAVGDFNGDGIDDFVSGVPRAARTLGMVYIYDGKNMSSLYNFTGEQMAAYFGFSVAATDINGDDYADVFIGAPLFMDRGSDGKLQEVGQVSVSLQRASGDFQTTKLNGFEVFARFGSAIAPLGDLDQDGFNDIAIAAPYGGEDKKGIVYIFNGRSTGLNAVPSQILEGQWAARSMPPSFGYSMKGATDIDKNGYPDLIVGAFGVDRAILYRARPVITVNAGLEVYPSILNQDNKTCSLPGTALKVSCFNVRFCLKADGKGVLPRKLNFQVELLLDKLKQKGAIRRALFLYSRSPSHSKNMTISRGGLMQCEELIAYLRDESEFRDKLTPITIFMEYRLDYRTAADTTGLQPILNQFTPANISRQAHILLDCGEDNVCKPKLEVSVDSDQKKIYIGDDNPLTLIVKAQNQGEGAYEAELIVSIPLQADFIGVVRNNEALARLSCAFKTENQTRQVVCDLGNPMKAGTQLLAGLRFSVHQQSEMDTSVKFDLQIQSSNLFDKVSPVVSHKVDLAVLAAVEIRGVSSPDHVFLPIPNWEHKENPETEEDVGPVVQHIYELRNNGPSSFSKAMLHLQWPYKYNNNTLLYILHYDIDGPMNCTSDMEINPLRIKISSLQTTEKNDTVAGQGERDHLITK
T1 sequence (P06756 891-1048 partner limits assumed): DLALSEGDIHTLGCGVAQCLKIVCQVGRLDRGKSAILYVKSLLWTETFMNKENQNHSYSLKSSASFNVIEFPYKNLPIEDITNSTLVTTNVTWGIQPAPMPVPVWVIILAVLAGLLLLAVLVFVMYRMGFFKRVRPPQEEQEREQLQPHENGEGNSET
T1 sequence (P05106 27-788): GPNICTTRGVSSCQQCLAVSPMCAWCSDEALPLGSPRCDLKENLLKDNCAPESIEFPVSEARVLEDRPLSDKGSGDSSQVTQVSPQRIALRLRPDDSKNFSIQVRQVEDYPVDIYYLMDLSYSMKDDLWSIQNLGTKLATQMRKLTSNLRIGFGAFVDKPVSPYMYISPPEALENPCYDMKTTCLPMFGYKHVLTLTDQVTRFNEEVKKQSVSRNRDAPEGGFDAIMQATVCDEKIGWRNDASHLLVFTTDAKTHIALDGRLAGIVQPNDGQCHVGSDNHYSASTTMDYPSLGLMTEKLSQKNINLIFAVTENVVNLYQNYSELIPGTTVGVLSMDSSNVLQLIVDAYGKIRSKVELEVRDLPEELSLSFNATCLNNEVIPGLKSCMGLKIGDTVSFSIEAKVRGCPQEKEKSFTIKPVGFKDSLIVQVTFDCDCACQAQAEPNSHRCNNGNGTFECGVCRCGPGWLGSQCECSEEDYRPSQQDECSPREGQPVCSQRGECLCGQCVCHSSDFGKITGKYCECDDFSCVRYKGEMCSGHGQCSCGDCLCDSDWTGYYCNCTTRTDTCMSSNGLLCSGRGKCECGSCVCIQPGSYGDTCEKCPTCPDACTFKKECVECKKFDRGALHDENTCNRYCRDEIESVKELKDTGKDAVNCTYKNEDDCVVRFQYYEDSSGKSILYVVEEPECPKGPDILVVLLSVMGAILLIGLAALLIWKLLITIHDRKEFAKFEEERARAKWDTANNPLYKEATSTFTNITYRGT

COc1ccc(S(=O)(=O)N[C@@H](CNc2nc(C)nc(N3CCC(c4ccc5c(n4)NCCC5)CC3)c2C)C(=O)O)cc1 [GLPG-0187, (S)-3-((2,5-dimethyl-6-(4-(5,6,7,8-tetrahydro-1,8-naphthyridin-2-yl)piperidin-1-yl)pyrimidin-4-yl)amino)-2-((4-methoxyphenyl)sulfonamido)propanoic acid]
% Change from baseline in the number of scratchings (mean ± standard error) ([1]; 5.37 μmol/kg i.p.): −38.9 ± 31.2% | IC50 [2]: ≤ 1 nM | cell adhesion inhibitory effect (in words) [2]: high | solubility [3]: low solubility

O=C(NC[C@H](NS(=O)(=O)c1ccccc1)C(=O)O)c1ccc(N2CCC[C@H](NC3=NCCCN3)C2)cc1 [CP derivative 6, (S)-2-(Phenylsulfonamido)-3-(4-((S)-3-((1,4,5,6-tetrahydropyrimidin-2-yl)amino)piperidin-1-yl)benzamido)propanoic acid]
% Change from baseline in the number of scratchings (mean ± standard error) ([1]; 53.7 μmol/kg i.p.): −77.8 ± 7.9% | grade of effect on % change from the baseline in the number of scratchings ([1]; single i.p., 53.7 μmol/kg (GLPG-0187 5.37 μmol/kg), paired t-test): ++ (mean change from the baseline was −65% or more at a P-value of less than 0.01) | IC50 [2]: ≤ 1 nM | cell adhesion inhibitory effect (in words) [2]: high | inhibition of binding between integrin αvβ3 and vitronectin [4]: inhibit binding | inhibition of binding between integrin αvβ3 and periostin [5]: inhibit binding

B1: Periostin: extracellular matrix protein that binds to cell surface receptors belonging to the integrin family (protein, UniProt Q15063 22-836, looked up)
Periostin: NNHYDKILAHSRIRGRDQGPNVCALQQILGTKKKYFSTCKNWYKKSICGQKTTVLYECCPGYMRMEGMKGCPAVLPIDHVYGTLGIVGATTTQRYSDASKLREEIEGKGSFTYFAPSNEAWDNLDSDIRRGLESNVNVELLNALHSHMINKRMLTKDLKNGMIIPSMYNNLGLFINHYPNGVVTVNCARIIHGNQIATNGVVHVIDRVLTQIGTSIQDFIEAEDDLSSFRAAAITSDILEALGRDGHFTLFAPTNEAFEKLPRGVLERIMGDKVASEALMKYHILNTLQCSESIMGGAVFETLEGNTIEIGCDGDSITVNGIKMVNKKDIVTNNGVIHLIDQVLIPDSAKQVIELAGKQQTTFTDLVAQLGLASALRPDGEYTLLAPVNNAFSDDTLSMDQRLLKLILQNHILKVKVGLNELYNGQILETIGGKQLRVFVYRTAVCIENSCMEKGSKQGRNGAIHIFREIIKPAEKSLHEKLKQDKRFSTFLSLLEAADLKELLTQPGDWTLFVPTNDAFKGMTSEEKEILIRDKNALQNIILYHLTPGVFIGKGFEPGVTNILKTTQGSKIFLKEVNDTLLVNELKSKESDIMTTNGVIHVVDKLLYPADTPVGNDQLLEILNKLIKYIQIKFVRGSTFKEIPVTVYTTKIITKVVEPKIKVIEGSLQPIIKTEGPTLTKVKIEGEPEFRLIKEGETITEVIHGEPIIKKYTKIIDGVPVEITEKETREERIITGPEIKYTRISTGGGETEETLKKLLQEEVTKVTKFIEGGDGHLFEDEEIKRLLQGDTPVRKLQANKKVQGSRRRLREGRSQ
induction of scratching behaviors [6]: induce scratching behaviors

— patent US20260355192A1, “PROPHYLACTIC OR THERAPEUTIC AGENT FOR PERIOSTIN-MEDIATED DISEASE AND PRURITUS ASSOCIATED THEREWITH” (SAGA UNIVERSITY, priority 2022, published 2026)
